Measured values taken from patent publication US7572825B2, “Ketones and reduced ketones as therapeutic agents for the treatment of bone conditions” (The University Court of the University of Aberdeen, priority 2003, dated 2009).

How the values were obtained:
J774 macrophages = assay: Alamar Blue macrophage J774 viability assay; assay type: cell-based; conditions: Mus musculus, 72 hours exposure, J774 macrophage cell line, read-out: IC50 against J774 macrophages (viability)
Experimental: Initial screening of candidate compounds was performed using viability assays, on cultures of the macrophage cell line J774, which have been used before as a model system for osteoclast survival (see, e.g., Luckman et al., 1998). The assay is based on the survival of the J774 macrophage cell line; macrophages are closely related to osteoclasts, and contain similar high levels of esterase activity.
J774 cells were plated at 10^4 cells per well in 150 μL αMEM (α Modified Eagle Medium) in 96-well plates and grown overnight. The next day, compounds were added to the cultures, and culture was continued for another 72 hours. At the end of the culture period cell survival was determined using an Alamar Blue assay as previously described (see, e.g., Nociari et al., 1998).
Alamar Blue is an oxidation-reduction sensitive indicator. The dye itself is in the oxidised state, which is blue and non-fluorescent. […] Thus the transformation from oxidised form to reduced form can be measured by fluorimetric or colourimetric means. For fluorescence measurements, 530-560 nm excitation and 590 nm emission wavelengths are typically used. For colourimetric measurements, absorbance is measured at 570 nm (reduced form) and 600 nm (oxidised form) and a simple calculation performed to determine the relative quantities of the two species. […]

osteoblasts = assay: Alamar Blue mouse osteoblast assay; assay type: cell-based; conditions: 72 hours exposure, read-out: IC50 against osteoblasts (survival)
Experimental: Osteoblasts were isolated as described above and plated at 10^4 cells/well in 96-well plates in 100 μL of αMEM supplemented with 10% FCS and antibiotics. Test compounds were added after 24 hours and left for 72 hours. Cell viability was assessed using the Alamar Blue assay as described for J774 macrophages. Alamar Blue (Biosource International) was added undiluted to each well (1:10 v/v, 10 μL). The plate was incubated at 37° C. for 3 to 4 hours and the fluorescence was measured at 570 nm, with a 25 nm bandwidth.
Osteoblast Isolation. Briefly, osteoblasts were isolated from the calvarial bones of 2-day-old mice by sequential collagenase digestion (type I collagenase, Sigma) and cultured in αMEM supplemented with 10% FCS (foetal calf serum) and penicillin and streptomycin at 37° C. in 5% CO2.
More specifically, osteoblasts were obtained from a collagenase digestion of the calvaria (skull bones) of 2-3 day old neo-natal MF1 mice. At this stage in their development these are soft and easily removed. The calvaria from 5-6 mice were carefully dissected and washed in HBSS (Hank's balanced saline solution). The calvaria were placed in a 15 mL tube and shaken at 37° C. in 4 mL collagenase (10 mg/ml) for 10 minutes. This removes the excess unwanted tissue. The liquid was disposed of and a further 4 mL collagenase (10 mg/ml) added to the tube. The calvaria were then digested for a further 30 minutes. […]

[1] = test system: ovariectomy induced bone loss; assay: Ovariectomy induced bone loss in mice, trabecular bone mineral density by pQCT; assay type: in vivo; conditions: OVX female C57/BL6 mice, 20 mg/kg by gavage in olive oil, 21 days, tibial metaphysis
Experimental: Animals. Female 9 week-old C57/BL6 mice. Animals were housed in a designated animal facility and routinely maintained on a 12 h:12 h light:dark cycle and given ad libitum access to food and water. Ovariectomy induced bone loss. Bilateral ovariectomy (Ovx) was performed under general anaesthesia. Sham ovariectomy (Sham) was similarly performed but with externalisation and replacement of the ovaries. Animals were given a gavage of (a) candidate compound (e.g., 20 mg/kg) in vehicle (olive oil), or (b) vehicle (olive oil). After 21 days, the animals were killed, and the tibial bones were dissected and used for bone mineral density measurements. Bone Mineral Measurements. Measurements of bone mineral density (BMD) at the left proximal tibial metaphysis were determined by peripheral quantitative computed tomography (pQCT) using an XCT Research M bone densitometer with a voxel size of 70 μm and analysis software version 5.1.4. (Stratec Medizintechnik, Pforzheim, Germany). Daily quality assurance measurements were performed using a plexi-coated PVC-fluorinated hydrocarbon phantom according to the manufacturer's instructions.

| SMILES | IC50 (J774 macrophages) [µM] | IC50 (osteoblasts) [µM] | reversal of ovariectomy-induced bone loss (percent change in trabecular BMD) [1] |
| --- | --- | --- | --- |
| O=C(CCCCCO)c1ccc(-c2ccccc2)cc1 [ABD-68, 6-Hydroxy-1-(4-biphenyl)hexan-1-one] | < 20 | > 100 | very effective at reversing the bone loss |
| OCCCCCC(O)c1ccc(-c2ccccc2)cc1 (centres unmarked) [ABD-150, 1-Biphenyl-4-yl-hexan-1,6-diol] | < 20 | > 100 |  |
